From patent US20220387602A1, “BIFUNCTIONAL DEGRADERS AND THEIR METHODS OF USE” (NOVARTIS AG, priority 2019, published 2022) come the findings set out here.

The target in assay [1] is T1, CRBN (Homo sapiens, UniProt Q96SW2). The assay is described as follows: CRBN displacement assay Format 1 (fluorescence polarization, BodipyFL-lenalidomide probe Compound HH). Format: binding. The protocol: (§1) Compounds were tested in the following biochemical and cellular assays.
(§2) BodipyFL conjugated lenalidomide compound HH was used as a fluorescent probe. […] Protein and substrate were diluted in assay buffer.
All protein and probe containing solutions were handled in ‘Maxymum Recovery’ tubes (Axygen Scientific Inc., Union City, USA). […] For the plate measurements a PHERAstar reader (BMG Labtech, Offenburg, Germany) was used. The instrument was equipped with a specific optics module containing filters and dichoic mirrors for measuring the fluorescence polarization-type assay. With this module, the fluorescence of the Bodipy FL-based probe was excited at 485 nm and the emissions of the product were measured at 520 nm. The fluorescence in each well was excited by 10 flashes per measurement.
For the determination of AC50 values, the assays were performed at room temperature in 384-well plates with a total assay volume of 10.1 μL per well. The test compound was dissolved in 90% (v/v) DMSO/water. For the assays, 100 nL of the 90% (v/v) DMSO/water solution or compound solution were added per well, followed by the addition of 5 μL protein solution (protein in 1× assay buffer).
(§3) The final assay concentration of the protein was nominally 100 nM. After 45 minutes of pre-incubation at room temperature, the competition for binding was started by the addition of 5 μL probe solution (probe dissolved in assay buffer). The final concentration of the probes in the assays was 5 nM. After the addition of the probe solution, the final DMSO concentration in the assay was 0.9% (v/v). The effect of the probe on the pre-established compound-protein complex equilibrium was determined after 45 minutes (t=45 min). The AC50 value was calculated from the plot of percentage of protein saturation versus the test compound concentration by a logistics fit according to: y=A^2+(A^1−A^2)/(1+(x/AC50)^p), where y is the %-saturation value at the test compound concentration, x. A^1 is the lowest saturation value, i.e., 0%, and A^2 the maximum saturation value, i.e. 100%. The exponent, p, is the Hill coefficient.

Assay [2] has as its target T1, CRBN. In words: CRBN displacement assay Format 2a (fluorescence polarization, 1536-well, Envision reader). Conditions: for CRBN Amax* (% at 50 μM) Format 2a: greatest effect as % displacement of the reference probe at the highest concentration tested (50 μM), given where AC50 >50 μM, 45 min. Format: binding. The protocol: as §1, §2
The fluorescence of the Bodipy FL-based probe was excited at 480 nm and the emissions of the product were measured at 535 nm. The fluorescence in each well was excited by 30 flashes per measurement.
For the determination of AC50 values, assays were performed at room temperature in 1536-well plates with a total assay volume of 6.03 μL per well. The test compounds were dissolved and diluted in 100% DMSO. For the assays, 30 nL of DMSO or compound solution were added per well, followed by the addition of 3 μL protein solution (80 nM protein in 1× assay buffer).
as §3, with “nominally 40” for “nominally 100”, “of 3” for “of 5”, “solution (10 nM probe” for “solution (probe”, “the probe” for “the probes”, “was 0.5%” for “was 0.9%”

The target in another assay is T2, BTK (Homo sapiens, UniProt Q06187).
T2 construct: the BTK open reading frame (ORF) was first shuttled from a pcDNA-DEST40-BTK vector; expressed in transfected cells; host or cells: HEK293A (Invitrogen R70507), lentiviral transduction, blasticidin selection
The assay is described as follows: BTK-GFP protein abundance flow cytometry assay in HEK293A. The class given is cell-based. Conditions: 24 h; for BTK degradation Amax: % protein remaining at the concentration at which maximum degradation is seen, HEK293A; for DC50: concentration at which 50% maximal degradation was observed, HEK293A BTK-GFP sensor cells. The protocol:
Degradation of BTK, CSK, ABL2, EPHA4 and YES1 was measured in HEK293A cells (Invitrogen R70507) expressing either BTK-GFP and RFP, CSK-GFP and mCherry, GFP-ABL2 and mCherry, EPHA4-GFP and mCherry, or YES1-GFP and mCherry from a stably integrated bicistronic BTK-GFP-iresRFP, CSK-GFP-CHYSEL-mCherry, GFP-ABL2-CHYSEL-mCherry, EPHA4-GFP-CHYSEL-mCherry, or YES1-GFP-CHYSEL-mCherry construct, respectively. Reduction of the GFP signal measured by flow cytometry served as readout for BTK, CSK, ABL2, EPHA4 and YES1 degradation after degrader treatment.
The mix was incubated for another 20 min at RT and then added on 1 mL of a freshly prepared suspension of HEK293FT cells in a well of a 6-well plate (concentration 1.2×10^6 cells/mL). 1 day after transfection, the medium was replaced with 1.5 mL of complete growth medium (DMEM high Glucose+10% FCS+1% L-Glutamine+1% NEAA+1% NaPyr.). 48 h post transfection supernatant containing viral transducing particles was collected and frozen at −80° C.
Infection was performed with 90 μL of collected supernatant containing viral transducing particles in 1 mL medium including 8 µg/mL polybrene. 24 h post infection, stably transfected cells were selected with blasticidin at a concentration of 8 μg/mL referred to as stable HEK293A sensor cells.
Stable HEK293A sensor cells were maintained in complete growth medium (DMEM high Glucose+10% FCS+1% L-Glutamine+1% NEAA+1% NaPyr.) with passaging performed twice per week. On Day 0, stable HEK293A sensor cells were seeded at 10,000 cells/well in a 96-well microtiter plate in 260 μL complete medium. On Day 1, cells were treated in duplicate with 10-point 1:3 dilution series of compound using the HP D300 Digital Dispenser (Tecan). DMSO concentrations were normalized across the plate to 0.1%. On Day 2, after 24 h of incubation at 37° C., treatment media was discarded, cells rinsed with 100 μL/well PBS and then detached using 40 μL trypsin/well for 5 min. Trypsin was neutralized with 100 μL/well PBS+20% FCS). Flow cytometry was performed on the samples using the BD FACS CANTO II (Becton Dickinson). Cell identification was then performed using forward (FSC) vs. side scatter (SSC) plots. Single cell discrimination is performed using SSC-Width (SSC-W) vs. SSC-Height (SSC-H) plots. Median GFP values for 5,000 single cells are used to determine BTK levels. Median GFP values from HEK293 Å-iresRFP are used as a background signal and thus defining 0% BTK signal. Median GFP values from DMSO treated HEK293 Å-BTK-GFP-iresRFP are used to define 100% BTK signal for subsequent DC50 curves (concentration at 50% BTK degradation). GFP and RFP are read in the channels called FITC and PE, respectively.
Concentration response curves plotting relative reduction of the GFP signal (measured by flow cytometry) versus 10 compound concentrations (starting concentration 10 μM, 3 fold dilution steps) of the compounds allowed generation of DC50 values. Protein abundance measured for the second generation vectors having a chysel was done in close analogy to the above described method for measuring BTK abundance.
Table 5 columns are defined as follows: DC50 refers to the concentration at which 50% maximal degradation was observed; deg Amax is the extent of degradation and the value refers to the % protein remaining at the concentration at which maximum degradation is seen.

The mark [3] stands for this setting: concentration at which 50% of reference probe Compound HH is displaced, 100 nM protein, 5 nM probe, Table 4, read-out: CRBN AC50 [μM] Format 1.
[4] abbreviates: concentration at which 50% of reference probe Compound HH is displaced, 40 nM protein, 5 nM probe, read-out: CRBN AC50 [μM] Format 2a.

A value given as a limit tells only on which side of the number the result lay.

T2 sequence (Q06187 whole entry): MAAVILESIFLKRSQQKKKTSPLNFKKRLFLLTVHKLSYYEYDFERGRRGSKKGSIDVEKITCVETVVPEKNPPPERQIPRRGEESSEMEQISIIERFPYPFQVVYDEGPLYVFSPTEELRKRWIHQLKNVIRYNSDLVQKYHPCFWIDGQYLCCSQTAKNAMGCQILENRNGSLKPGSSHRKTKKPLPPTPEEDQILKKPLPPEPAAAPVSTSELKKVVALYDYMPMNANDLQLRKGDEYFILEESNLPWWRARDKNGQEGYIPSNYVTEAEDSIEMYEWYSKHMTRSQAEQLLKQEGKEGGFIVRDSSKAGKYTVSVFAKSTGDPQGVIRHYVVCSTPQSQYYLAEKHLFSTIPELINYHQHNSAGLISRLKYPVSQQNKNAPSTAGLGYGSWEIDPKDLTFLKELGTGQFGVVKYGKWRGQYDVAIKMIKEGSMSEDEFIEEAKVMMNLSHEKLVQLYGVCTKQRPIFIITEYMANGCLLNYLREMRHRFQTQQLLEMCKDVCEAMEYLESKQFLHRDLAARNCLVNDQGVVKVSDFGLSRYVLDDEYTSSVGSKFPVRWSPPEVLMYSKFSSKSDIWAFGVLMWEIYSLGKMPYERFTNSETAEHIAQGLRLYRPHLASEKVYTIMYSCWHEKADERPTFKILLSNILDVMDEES
T1 sequence (Q96SW2 whole entry): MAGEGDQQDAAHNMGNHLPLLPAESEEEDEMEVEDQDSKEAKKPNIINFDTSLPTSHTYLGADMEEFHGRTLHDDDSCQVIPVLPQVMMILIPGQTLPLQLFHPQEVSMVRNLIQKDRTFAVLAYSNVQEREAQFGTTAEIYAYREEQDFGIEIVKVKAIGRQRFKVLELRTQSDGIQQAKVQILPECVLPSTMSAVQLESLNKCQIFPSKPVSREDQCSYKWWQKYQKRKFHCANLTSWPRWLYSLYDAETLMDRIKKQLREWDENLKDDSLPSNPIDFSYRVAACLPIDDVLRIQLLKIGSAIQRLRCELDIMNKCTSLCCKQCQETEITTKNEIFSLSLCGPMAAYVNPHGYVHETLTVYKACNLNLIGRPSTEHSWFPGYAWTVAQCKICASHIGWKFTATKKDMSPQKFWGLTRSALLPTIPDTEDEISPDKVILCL

Turning to `Cc1ccc(OCC=O)cc1N1CCC(=O)NC1=O` [ILB-19, 2-(3-(2,4-dioxotetrahydropyrimidin-1(2H)-yl)-4-methylphenoxy)acetaldehyde], the AC50 at CRBN [1] (setting [3]) came to 2.51 µM; on CRBN [2] (setting [4]), 0.8 µM.

For `Cc1ccc(S(=O)(=O)NCCCCCN)cc1N1CCC(=O)NC1=O` [ILB-53, N-(5-aminopentyl)-3-(2,4-dioxotetrahydropyrimidin-1(2H)-yl)-4-methylbenzenesulfonamide], the figures for the AC50 at CRBN [1] (setting [3]) and on CRBN [2] (setting [4]) were 14.9 µM and 2.16 µM, respectively.

Take `Cc1cc(OCC(=O)O)ccc1N1CCC(=O)NC1=O` [ILB-15]: the AC50 on CRBN [1] (setting [3]) turned out to be 7.37 µM; on CRBN [2] (setting [4]) it was 2.61 µM.

For the molecule `O=C1CCN(c2ccc(C(=O)O)cc2)C(=O)N1` [ILB-31], the AC50 on CRBN [1] (setting [3]) was 9.64 µM; at CRBN [2] (setting [4]), 5.1 µM.

On to `COc1cc(C(=O)O)ccc1N1CCC(=O)NC1=O` [ILB-81, 4-(2,4-dioxotetrahydropyrimidin-1(2H)-yl)-3-methoxybenzoic acid], for which the AC50 was 12.3 µM at CRBN [1] (setting [3]) and 2.38 µM on CRBN [2] (setting [4]).

As for `O=C(O)COc1cccc(N2CCC(=O)NC2=O)c1` [ILB-16, 2-(3-(2,4-Dioxotetrahydropyrimidin-1(2H)-yl)phenoxy)acetic acid], the AC50 on CRBN [1] (setting [3]) came out at 11.7 µM; at CRBN [2] (setting [4]) it was 7.34 µM.

At CRBN [1], `O=C1CCN(c2cc(C(=O)N3CCC(OC4CCNCC4)CC3)ccc2Cl)C(=O)N1` [ILB-60, 1-(2-Chloro-5-(4-(piperidin-4-yloxy)piperidine-1-carbonyl)phenyl)dihydropyrimidine-2,4(1H,3H)-dione] showed a half-maximal activity concentration (AC50) of 2.8 µM.

Take `O=C1CCN(c2cc(C(=O)O)ccc2Cl)C(=O)N1` [ILB-25, 4-chloro-3-(2,4-dioxotetrahydropyrimidin-1(2H)-yl)benzoic acid]: the AC50 turned out to be 1.98 µM on CRBN [1] (setting [3]) and 0.48 µM at CRBN [2] (setting [4]).

For `O=C1CCN(Cc2cc(C(=O)O)ccn2)C(=O)N1` [ILB-8, 2-((2,4-Dioxotetrahydropyrimidin-1(2H)-yl)methyl)isonicotinic acid], on CRBN [1], the AC50 is above 100 µM. On CRBN [2], the AC50 was above 50 µM and the “CRBN Amax* (% at 50 μM) Format 2a” value stood at 21%.

`O=C1CCN(Cc2cccc(CCO)c2)C(=O)N1` [ILB-7, 1-(3-(2-Hydroxyethyl)benzyl)dihydropyrimidine-2,4(1H,3H)-dione] had an AC50 at CRBN [1] of 61.2 µM. In addition, on CRBN [2], the AC50 is above 50 µM and the “CRBN Amax* (% at 50 μM) Format 2a” value was found to be 40%.

On to `O=C1CCN(c2c(F)cc(C#CCN3CCNCC3)cc2F)C(=O)N1` [ILB-45, 1-(2,6-difluoro-4-(3-(piperazin-1-yl)prop-1-yn-1-yl)phenyl)dihydropyrimidine-2,4(1H,3H)-dione], for which, at CRBN [1], the AC50 amounted to 13.5 µM.

In the case of `Cc1cc(F)c(C(=O)O)cc1N1CCC(=O)NC1=O` [ILB-29, 5-(2,4-dioxotetrahydropyrimidin-1(2H)-yl)-2-fluoro-4-methylbenzoic acid], the AC50 on CRBN [1] (setting [3]) turned out to be 0.95 µM.

Regarding `Cc1cc(OCCN2CCC(OC3CCN(Cc4ccc(-c5cc6c(-c7cc(F)cc(NC(=O)c8ccc(C(C)(C)O)cc8F)c7C)ncnc6[nH]5)cc4)CC3)CC2)ccc1N1CCC(=O)NC1=O` [Compound 30, N-(3-(6-(4-((4-((1-(2-(4-(2,4-dioxotetrahydropyrimidin-1(2H)-yl)-3-methylphenoxy)ethyl)piperidin-4-yl)oxy)piperidin-1-yl)methyl)phenyl)-7H-pyrrolo[2,3-d]pyrimidin-4-yl)-5-fluoro-2-methylphenyl)-2-fluoro-4-(2-hydroxypropan-2-yl)benzamide], at BTK, the “BTK degradation Amax” value was 12.2% and half-maximal degradation (DC50) was put at 9.8 nM.

For `Cc1c(NC(=O)c2ccc(C(C)(C)O)cc2F)cc(F)cc1-c1ncnc2[nH]c(-c3ccc(CN4CCC5(CCN(CCOc6ccc(N7CCC(=O)NC7=O)c(Cl)c6)CC5)CC4)cc3)cc12` [Compound 31, N-(3-(6-(4-((9-(2-(3-chloro-4-(2,4-dioxotetrahydropyrimidin-1(2H)-yl)phenoxy)ethyl)-3,9-diazaspiro[5.5]undecan-3-yl)methyl)phenyl)-7H-pyrrolo[2,3-d]pyrimidin-4-yl)-5-fluoro-2-methylphenyl)-2-fluoro-4-(2-hydroxypropan-2-yl)benzamide], at BTK, the “BTK degradation Amax” value was 32.8% and the DC50 stood at 55.7 nM.

For the molecule `Cc1c(NC(=O)c2ccc(C(C)(C)O)cc2F)cc(F)cc1-c1ncnc2[nH]c(-c3ccc(CN4CCN(CCN5CCC(Oc6ccc(N7CCC(=O)NC7=O)cc6)CC5)CC4)cc3)cc12` [Compound 28, N-(3-(6-(4-((4-(2-(4-(4-(2,4-dioxotetrahydropyrimidin-1(2H)-yl)phenoxy)piperidin-1-yl)ethyl)piperazin-1-yl)methyl)phenyl)-7H-pyrrolo[2,3-d]pyrimidin-4-yl)-5-fluoro-2-methylphenyl)-2-fluoro-4-(2-hydroxypropan-2-yl)benzamide], at BTK, the “BTK degradation Amax” value was found to be 40% and the DC50 amounted to 9.2 nM.
